What all share (type): biochemical
One test deals with b-Raf (Homo sapiens, UniProt P15056). As to the kind of experiment: b-Raf kinase inhibition assay (IκBα substrate, 384-well plate). Particulars: read-out: IC50 against b-Raf. As to the method:
Compounds of the invention are tested for their ability to inhibit the activity of b-Raf. The assay is carried out in 384-well MaxiSorp plates (NUNC) with black walls and clear bottom. The substrate, IκBα is diluted in DPBS (1:750) and 15 μl is added to each well. The plates are incubated at 4° C. overnight and washed 3 times with TBST (25 mM Tris, pH 8.0, 150 mM NaCl and 0.05% Tween-20) using the EMBLA plate washer. Plates are blocked by Superblock (15 μl/well) for 3 hours at room temperature, washed 3 times with TBST and pat-dried. Assay buffer containing 20 μM ATP (10 μl) is added to each well followed by 100 nl or 500 nl of compound. B-Raf is diluted in the assay buffer (1 μl into 25 μl) and 10 μl of diluted b-Raf is added to each well (0.4 μg/well). The plates are incubated at room temperature for 2.5 hours. The kinase reaction is stopped by washing the plates 6 times with TBST. Phosph-IκBα (Ser32/36) antibody is diluted in Superblock (1:10,000) and 15 μl is added to each well. The plates are incubated at 4° C. overnight and washed 6 times with TBST. AP-conjugated goat-anti-mouse IgG is diluted in Superblock (1:1,500) and 15 μl is added to each well. Plates are incubated at room temperature for 1 hour and washed 6 times with TBST. […] Plates are read on Acquest or Analyst GT using a Fluorescence Intensity Nanxin BBT anion (505 dichroic mirror).

In another test the target is T1, Abl (Homo sapiens, UniProt P00519).
T1 construct: purchased Upstate (KinaseProfiler panel)
T1 sequence (P00519 whole entry, species assumed): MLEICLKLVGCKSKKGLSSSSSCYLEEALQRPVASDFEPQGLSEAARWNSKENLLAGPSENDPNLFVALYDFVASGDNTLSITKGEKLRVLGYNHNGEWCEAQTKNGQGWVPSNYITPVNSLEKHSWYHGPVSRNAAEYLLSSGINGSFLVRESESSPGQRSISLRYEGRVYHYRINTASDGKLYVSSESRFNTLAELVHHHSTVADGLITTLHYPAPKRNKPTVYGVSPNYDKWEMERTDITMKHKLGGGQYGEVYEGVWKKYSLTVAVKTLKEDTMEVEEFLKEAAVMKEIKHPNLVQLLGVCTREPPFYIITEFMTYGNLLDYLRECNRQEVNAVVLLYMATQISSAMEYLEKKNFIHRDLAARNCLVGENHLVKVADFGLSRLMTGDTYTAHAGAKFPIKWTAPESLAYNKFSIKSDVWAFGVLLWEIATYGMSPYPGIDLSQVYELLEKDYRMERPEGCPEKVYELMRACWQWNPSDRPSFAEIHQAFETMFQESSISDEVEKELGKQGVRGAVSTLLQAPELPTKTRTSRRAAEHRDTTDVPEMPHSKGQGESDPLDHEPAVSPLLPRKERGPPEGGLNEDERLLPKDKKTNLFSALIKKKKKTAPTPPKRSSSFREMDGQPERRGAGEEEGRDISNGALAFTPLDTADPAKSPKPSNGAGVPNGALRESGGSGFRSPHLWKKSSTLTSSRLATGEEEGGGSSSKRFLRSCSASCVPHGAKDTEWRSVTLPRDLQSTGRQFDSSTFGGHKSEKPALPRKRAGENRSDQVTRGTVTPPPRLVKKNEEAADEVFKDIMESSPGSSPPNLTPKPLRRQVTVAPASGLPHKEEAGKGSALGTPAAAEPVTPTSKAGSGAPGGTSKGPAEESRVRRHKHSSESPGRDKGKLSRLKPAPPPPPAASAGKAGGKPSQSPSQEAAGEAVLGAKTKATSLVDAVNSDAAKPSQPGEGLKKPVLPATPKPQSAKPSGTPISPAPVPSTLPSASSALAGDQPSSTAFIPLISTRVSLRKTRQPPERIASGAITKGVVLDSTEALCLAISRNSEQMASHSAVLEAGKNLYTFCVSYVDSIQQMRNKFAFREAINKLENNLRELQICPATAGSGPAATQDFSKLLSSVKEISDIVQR
As to the kind of experiment: Upstate KinaseProfiler radio-enzymatic filter binding assay. Particulars: at a concentration of 10 μM; 100% means complete inhibition; read-out: percentage inhibition of Abl. As to the method:
(§1) Compounds of the invention are assessed for their ability to inhibit individual members of a panel of kinases (a partial, non-limiting list of kinases includes: Abl, BCR-Abl, EGF-R, c-erbB2 kinase (HER-2), PDGF-R, lck, SAPK2α, p38, TGFβ, KDR, c-Kit, b-RAF, c-RAF, FLTI and FLT4). The compounds are tested in duplicates at a final concentration of 10 μM following this generic protocol. Note that the kinase buffer composition and the substrates vary for the different kinases included in the “Upstate KinaseProfiler™” panel. Kinase buffer (2.5 μL, 10x—containing MnCl2 when required), active kinase (0.001-0.01 Units; 2.5 μL), specific or Poly(Glu4-Tyr) peptide (5-500 μM or .01mg/ml) in kinase buffer and kinase buffer ([…]; 5 μL) are mixed in an eppendorf on ice. A Mg/ATP mix (10 μL; 67.5 (or 33.75) mM MgCl2, 450 (or 225) μM ATP and 1 μCi/μl [γ-^32P]-ATP (3000 Ci/mmol)) is added and the reaction is incubated at about 30° C. for about 10 minutes. The reaction mixture is spotted (20 μL) onto a 2 cm×2 cm P81 (phosphocellulose, for positively charged peptide substrates) or Whatman No. 1 (for Poly (Glu4-Tyr) peptide substrate) paper square. The assay squares are washed 4 times, for 5 minutes each, with 0.75% phosphoric acid and washed once with acetone for 5 minutes. The assay squares are transferred to a scintillation vial, 5 ml scintillation cocktail are added and ^32P incorporation (cpm) to the peptide substrate is quantified with a Beckman scintillation counter. Percentage inhibition is calculated for each reaction.

The next test has as its target T2, Lck (Homo sapiens, UniProt P06239).
T2 construct: purchased Upstate (KinaseProfiler panel)
Described as above. Particulars: at a concentration of 10 μM; 100% means complete inhibition; read-out: percentage inhibition of Lck. As to the method:
as §1

The next test deals with T3, SAPK2α (Homo sapiens, UniProt Q16539).
T3 construct: purchased Upstate (KinaseProfiler panel)
T3 sequence (Q16539 whole entry): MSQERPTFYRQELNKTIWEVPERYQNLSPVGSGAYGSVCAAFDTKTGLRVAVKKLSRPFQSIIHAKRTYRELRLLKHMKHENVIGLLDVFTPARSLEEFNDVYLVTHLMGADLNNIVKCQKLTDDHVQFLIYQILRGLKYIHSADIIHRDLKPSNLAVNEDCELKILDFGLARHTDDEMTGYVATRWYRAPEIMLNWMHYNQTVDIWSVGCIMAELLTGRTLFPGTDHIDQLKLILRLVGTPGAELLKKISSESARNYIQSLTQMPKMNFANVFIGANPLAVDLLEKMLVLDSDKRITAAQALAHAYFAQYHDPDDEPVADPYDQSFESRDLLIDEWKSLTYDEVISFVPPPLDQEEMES
Described as above. Particulars: at a concentration of 10 μM; 100% means complete inhibition; read-out: percentage inhibition of SAPK2α. As for the experimental part:
as §1

In another test the target is T4, c-RAF (Homo sapiens, UniProt P04049).
T4 construct: purchased Upstate (KinaseProfiler panel)
T4 sequence (P04049 whole entry): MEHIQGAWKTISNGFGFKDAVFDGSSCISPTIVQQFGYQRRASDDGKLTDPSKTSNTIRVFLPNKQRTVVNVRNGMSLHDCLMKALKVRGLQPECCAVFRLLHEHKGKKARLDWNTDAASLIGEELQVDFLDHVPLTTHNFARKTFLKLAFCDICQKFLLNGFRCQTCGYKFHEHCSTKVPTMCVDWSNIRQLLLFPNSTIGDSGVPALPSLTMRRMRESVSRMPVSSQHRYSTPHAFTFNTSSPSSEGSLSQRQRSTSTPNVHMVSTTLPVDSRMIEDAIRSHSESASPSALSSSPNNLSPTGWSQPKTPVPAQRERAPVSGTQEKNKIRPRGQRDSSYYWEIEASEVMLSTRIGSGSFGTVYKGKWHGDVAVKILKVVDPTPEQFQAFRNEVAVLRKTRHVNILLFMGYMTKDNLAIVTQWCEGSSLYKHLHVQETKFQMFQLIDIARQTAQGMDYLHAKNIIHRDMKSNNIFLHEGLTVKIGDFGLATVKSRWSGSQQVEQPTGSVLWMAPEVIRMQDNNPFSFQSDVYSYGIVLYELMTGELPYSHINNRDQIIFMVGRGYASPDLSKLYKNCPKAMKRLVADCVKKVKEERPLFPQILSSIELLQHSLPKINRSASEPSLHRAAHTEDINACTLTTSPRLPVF
The test is described as above. Particulars: at a concentration of 10 μM; 100% means complete inhibition; read-out: percentage inhibition of c-RAF. As for the experimental part: as §1

The results in this text go back to patent publication US7569593B2, “Compounds and compositions as protein kinase inhibitors” (IRM LLC, priority 2003, dated 2009).

b-Raf, sequence (P15056 whole entry): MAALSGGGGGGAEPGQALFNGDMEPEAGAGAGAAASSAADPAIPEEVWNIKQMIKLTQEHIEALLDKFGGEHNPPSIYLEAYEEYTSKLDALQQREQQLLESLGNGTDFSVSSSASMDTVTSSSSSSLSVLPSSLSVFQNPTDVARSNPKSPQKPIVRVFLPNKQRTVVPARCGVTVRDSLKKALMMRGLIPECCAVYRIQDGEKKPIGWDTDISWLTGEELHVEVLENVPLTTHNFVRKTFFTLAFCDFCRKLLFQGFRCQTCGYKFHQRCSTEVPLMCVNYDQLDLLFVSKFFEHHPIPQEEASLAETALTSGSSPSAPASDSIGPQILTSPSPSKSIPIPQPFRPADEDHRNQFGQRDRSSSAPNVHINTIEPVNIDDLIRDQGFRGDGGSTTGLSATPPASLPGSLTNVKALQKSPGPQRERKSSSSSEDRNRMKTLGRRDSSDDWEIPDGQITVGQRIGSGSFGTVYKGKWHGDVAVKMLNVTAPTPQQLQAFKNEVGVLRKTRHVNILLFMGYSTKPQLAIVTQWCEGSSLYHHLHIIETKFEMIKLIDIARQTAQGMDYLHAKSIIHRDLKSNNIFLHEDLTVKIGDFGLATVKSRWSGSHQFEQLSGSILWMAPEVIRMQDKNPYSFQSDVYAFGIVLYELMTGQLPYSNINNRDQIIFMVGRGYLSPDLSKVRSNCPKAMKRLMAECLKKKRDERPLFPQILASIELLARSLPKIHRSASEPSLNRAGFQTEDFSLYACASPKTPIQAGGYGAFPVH
T2 sequence (P06239 whole entry, species assumed): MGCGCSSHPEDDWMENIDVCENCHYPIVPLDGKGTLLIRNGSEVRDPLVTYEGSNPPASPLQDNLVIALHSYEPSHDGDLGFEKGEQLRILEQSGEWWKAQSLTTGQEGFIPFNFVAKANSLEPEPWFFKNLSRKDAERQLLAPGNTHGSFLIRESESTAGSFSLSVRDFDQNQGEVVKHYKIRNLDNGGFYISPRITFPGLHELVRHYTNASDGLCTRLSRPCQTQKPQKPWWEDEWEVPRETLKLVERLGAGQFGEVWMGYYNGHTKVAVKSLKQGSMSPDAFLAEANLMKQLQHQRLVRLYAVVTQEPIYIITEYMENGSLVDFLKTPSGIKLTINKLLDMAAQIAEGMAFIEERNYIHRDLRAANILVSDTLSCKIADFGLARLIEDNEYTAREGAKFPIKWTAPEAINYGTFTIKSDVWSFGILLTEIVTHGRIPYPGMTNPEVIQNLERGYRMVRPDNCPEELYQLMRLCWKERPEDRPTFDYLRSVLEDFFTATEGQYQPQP

As usually defined, the IC50 is the midpoint of a concentration-inhibition curve. As for `CN(C)c1ccc(NC(=O)Oc2ccc3cc(-c4nc(-c5ccccc5)[nH]c4-c4ccncc4)ccc3c2)cc1` [Compound 15, (4-dimethylamino-phenyl)-carbamic acid 6-(2-phenyl-5-pyridin-4-yl-1H-imidazol-4-yl)-naphthalen-2-yl ester], the concentration for half-maximal inhibition (IC50) at b-Raf came to 879 nM.

As usually defined, the inhibition is the change of the read-out against control, counted positive when it falls. For the compound `Oc1ccc2cc(-c3nc(-c4ccccc4)[nH]c3-c3ccncc3)ccc2c1` [Compound 11, 6-(2-phenyl-5-pyridin-4-yl-1H-imidazol-4-yl)-naphthalen-2-ol], the IC50 on b-Raf was found to be 300 nM. Moreover, the inhibition at 10 µM at Abl was found to be 98%; on Lck it was 61%; on SAPK2α, 74%; at c-RAF, 98%.
